In US10034913B2, “Anti-angiogenic peptides and uses thereof” (Health Research, Inc., priority 2011, dated 2018):
Bridges are numbered along the chain shown (N, C = ends). Where no end group is shown, it is not given here.

Assays:
[1] = biological target: T1, PSA (Homo sapiens, UniProt P07288); test: Inhibition of PSA enzymatic activity by zinc; assay type: biochemical
T1 construct: The 237 amino acid protein (25-261) were used in the studies that include PSA as described herein; from tissue; host or cells: human seminal plasma (f-PSA); human prostate cancer tissue specimens (T-PSA)
Protocol: (§1) Hydrolysis of the fluorogenic substrate was quantitated using a LS-45 Luminescence Spectrometer from Perkin Elmer) using the FL-Winlab® program. Human prostate cancer tissue specimens were obtained from the Pathology Resource Network at Roswell Park Cancer Institute under an IRB approved protocol.
(§2) Enzymatically active PSA, and PSA inactivated by incubation with Zinc^2+ [activity inhibited>75% by 5.0 μM of Zinc, inset FIG. 4] were compared for their respective effects on expression of genes involved in angiogenesis/vasculogenesis in HUVEC cells.

[2] = tested on: ANG2 gene expression in HUVEC; test: ANG2 gene expression in HUVEC, Real-time QPCR; assay type: cell-based, human; conditions: 10 uM, average of three experiments
Protocol: FIG. 18 is a graphical representation of data showing modulation of ANG2 gene expression in HUVEC by f-PSA, PSA-P31 and PSA-P3C. To produce the results summarized in FIG. 18, nearly confluent monolayers of HUVEC were treated with 10 uM of f-PSA, PSA-P3L or PSA-P3C; RNA extracted and reverse transcribed. The c-DNA was amplified by Real-time QPCR using specific primer. The results shown are an average of three experiments. […] Accordingly, in one embodiment, the invention provides a method for inhibiting ANG2 expression in human endothelial cells comprising contacting the cells with one or more peptides of the invention.

[3] = tested on: HUVEC; test: Matrigel endothelial tube formation assay; assay type: cell-based, human; conditions: for reproducible anti-angiogenic activity: tested at 10 and 100 μM; for anti-angiogenic activity, inhibition of tube formation by HUVEC in Matrigel: 10 uM, 18 hr, FIGS. 14, 19, 20
Description: The 3-D model of human PSA, the amino acid sequence of the initial five candidate peptides, and their color-coded location on the exterior of the PSA protein molecule in aqueous solution, are presented in FIG. 8. Five PSA-mimetic peptides with >90% purity were acquired from GeneScript Corporation, Piscataway, N.J., and tested for anti-angiogenic activity against HUVECs in the Matrigel tube formation assay with intact PSA as the control (FIGS. 9 &10). Briefly, to perform these assays, 10^4 HUVEC cells are mixed with the PSA mimetic peptide, and, the mixture placed on top of a solidified, pre-poured Matrigel layer in a flat bottomed well of a multi-chambered plate, and the culture incubated for 16-18 hr to allow time for the endothelial cells to migrate and form tubular structures. At the conclusion of the incubation, digital images were made from the center of each culture to avoid bias, and 3-4 wells for each test condition were imaged. The images are processed under the Analyze 7.0 and “Angioquant” software packages, for imaging and quantification. The total length of tubular structures in the image is determined, and averaged over the replicate cultures. This method of quantification allows for accurate, unbiased measurement of tube lengths. Peptides having each of the peptide sequences shown in FIG. 8 are encompassed within the scope of the invention, including all modifications and substitutions to the sequences as described supra.
The experimental endpoint, measured by digital image analysis, is the total area of the image comprised of endothelial cells (tubes). […] While the reason for the decrease in the amount of anti-angiogenic activity in this figure when the concentration of the peptides is increased from 10 to 100 μM is not clear, it may be related to a dosing response observed in this case. […] FIG. 10 presents the evaluation of anti-angiogenic activity for peptides #1 and #3 relative to the level of inhibition by native PSA, averaged over multiple experiments with different parental populations of HUVEC cells. Across multiple sets of experiments, both peptides inhibited the angiogenic activity of HUVEC by 35-40% relative to native PSA.
FIG. 13 is a graphical representation of data showing anti-angiogenic activity of f-PSA, PSA-P3L, and PSA-P3C by inhibiting tube formation by HUVEC in a Matrigel assay. To produce the results summarized in FIG. 13, a 24-well tissue culture plate was coated with 200 ul/well of Matrigel and incubated for 30 min at 37 C. Approximately 80,000 HUVEC in 0.5 ml of media supplemented with f-PSA or PSA-P3L, PSA-P3C was applied on top of the Matrigel layer and cells were incubated for 18 hr at 37 C foe endothelial cell tube formation. Live cell images (4× magnification) were taken using Nikon Eclipse TE300 inverted microscope system and analyzed using Spot Advance software program. Five images were taken/well. The images were processed further using Analyze 7.0 (AnalyzeDirect, Inc., Overland Park, Kans.) and Angioquant v1.33 to obtain the average tube length for each image. Percent inhibition is expressed in relation to tube length in untreated control cells.

[4] = tested on: VEGF gene expression in HUVEC; test: VEGF gene expression in HUVEC, Real-time QPCR; assay type: cell-based, human; conditions: 10 uM, average of three experiments
Protocol: FIG. 17 is a graphical representation of data showing modulation of VEGF gene expression in HUVEC by f-PSA, PSA-P3L and PSA-P3C. To produce the results summarized in FIG. 17, nearly confluent monolayers of HUVEC were treated with 10 uM of f-PSA or PSA-P3L; RNA extracted and reverse transcribed. The c-DNA was amplified by Real-time QPCR using specific primers. The results shown are average of three experiments. […] The data represents an average of three experiments. […] Thus, in one embodiment, the invention provides a method for inhibiting VEGF expression in human endothelial cells comprising contacting the cells with one or more peptides of the invention.

[5] = tested on: FAK gene expression in HUVEC; test: FAK gene expression in HUVEC, Real-time QPCR; assay type: cell-based, human; conditions: 10 uM, average of three experiments
Protocol: FIG. 16 is a graphical representation of data showing modulation of FAK gene expression in HUVEC by f-PSA and PSA-P3L. To produce the results summarized in FIG. 16, nearly confluent monolayers of HUVEC were treated with 10 uM of f-PSA or PSA-P3L; RNA extracted and reverse transcribed. The c-DNA was amplified by Real-time QPCR using specific primers. The results shown are the average of three experiments. […] The other experimental details are similar to all gene expression studies. Thus, in one embodiment, the invention provides a method for inhibiting FAK gene expression in human endothelial cells comprising contacting the cells with one or more peptides of the invention.

[6] = tested on: FLT1 gene expression in HUVEC; test: FLT1 gene expression in HUVEC, Real-time QPCR; assay type: cell-based, human; conditions: 10 uM, average of three experiments
Protocol: FIG. 15 is a graphical representation of data showing modulation of FLT1 gene expression in HUVEC by f-PSA and PSA-P31. […] To obtain the data summarized in this figure, nearly confluent monolayers of HUVEC were treated with 10 uM of f-PSA or PSA-P3L; RNA extracted and reverse transcribed. The c-DNA was amplified by Real-time QPCR using specific primer. The results shown are average of three experiments.

[7] = tested on: HUVEC cells; test: Expression of angiogenesis/vasculogenesis genes in HUVEC, enzymatically active vs inactive PSA; assay type: cell-based, human
Protocol: as §2

[8] = biological target: T2, Mu-His-Ser-Ser-Lys-Leu-Gln—AFC (Homo sapiens, UniProt P07288); test: Enzymatic activity of isolated PSA, hydrolysis of fluorogenic substrate; assay type: biochemical
T2 construct: The 237 amino acid protein (25-261) were used in the studies that include PSA as described herein; from tissue; host or cells: human seminal plasma (f-PSA); human prostate cancer tissue specimens (T-PSA)
Protocol: In particular, enzymatic activity of PSA isolated from human seminal plasma (f-PSA) and from human prostate cancer tissue specimens (Tissue-PSA: T-PSA) was evaluated routinely using a substrate (Mu-His-Ser-Ser-Lys-Leu-Gln—AFC) (SEQ ID NO:102) (Calbiochem) that is highly specific for PSA. […] PSA in the tissue microenvironment (T-PSA) is largely free and enzymatically active. T-PSA levels are lower in advanced prostate cancer than benign prostate, and T-PSA levels correlate with prognosis in prostate cancer, as well as in breast cancer; the higher the T-PSA level, the better the prognosis.
as §1

T2 sequence (P07288 25-261): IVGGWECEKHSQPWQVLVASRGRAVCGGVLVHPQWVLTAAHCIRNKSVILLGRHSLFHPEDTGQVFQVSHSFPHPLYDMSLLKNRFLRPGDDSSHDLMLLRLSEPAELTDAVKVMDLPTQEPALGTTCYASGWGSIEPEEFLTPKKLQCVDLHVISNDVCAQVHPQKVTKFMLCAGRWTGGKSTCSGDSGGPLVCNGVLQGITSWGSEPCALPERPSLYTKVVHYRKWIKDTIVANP
T1 sequence (P07288 25-261): as above

[Cl-].[Cl-].[Zn+2] [zinc chloride]
PSA activity inhibited ([1]; 5.0 μM of Zinc): > 75% | inhibition of enzymatic activity of f-PSA and T-PSA ([1]; pre-incubation with zinc chloride 5 μM): inhibited completely

Asn Asp Val Cys Ala Gln Val His Pro Gln Lys Val Thr Lys Phe Met Leu Cys Ala (Ac-NDVCAQVHPQKVTKFMLCA-NH2; disulfide 4-18 (inferred)) [PSA-P3C]
ANG2 gene expression [2]: significantly inhibited | inhibition of HUVEC tube formation, cyclic versus linear peptide ([3]; at certain concentrations, FIG. 11): even more efficiently than linear peptide | VEGF gene expression [4]: significantly down-regulate | FAK gene expression [5]: significantly down-regulates

GRWTGGKSTCS [Peptide #4]
reproducible anti-angiogenic activity [3]: did not demonstrate reproducible anti-angiogenic activity

GWGSIEPEEFLTPKKLQ [Peptide #2]
reproducible anti-angiogenic activity [3]: did not demonstrate reproducible anti-angiogenic activity

KNRFLRPGDDSSH [Peptide #1, amino acids 107-119 of PSA]
anti-angiogenic activity, inhibition of tube formation by HUVEC in Matrigel [3]: significantly inhibit | inhibition of tubule formation ([3]; 100 μM, FIG. 9): maximal inhibition

NDVAAQVHPQKVTKFMLAA [PSA-P3L]
FLT1 gene expression [6]: effectively inhibit | ANG2 gene expression [2]: not significantly different from control | anti-angiogenic activity, inhibition of tube formation by HUVEC in Matrigel [3]: significantly inhibit | VEGF gene expression [4]: not significantly different from control | FAK gene expression [5]: not significantly different

PSA inactivated by incubation with Zinc^2+: PSA enzymatically inactivated by incubation with Zinc2+ (5.0 μM)
inhibition of tube formation compared with native PSA ([3]; over the entire range of PSA concentrations studied): as inhibitory of tube formation as was native PSA | expression of blood vessel development genes FAK, FLT, KDR, TWIST1, Cathepsin D and P-38 [7]: equally effective | negative modulation of expression of pro-angiogenic growth factors bFGF and VEGF [7]: equally effective | positive modulation of expression of IFN-γ [7]: equally effective

PSA-ACT Complex: f-PSA complexed with serine protease inhibitor alpha 1 anti-chymotrypsin (ACT)
anti-angiogenic activity, inhibition of tube formation by HUVEC in Matrigel [3]: significant loss of anti-angiogenic activity | anti-angiogenic activity, inhibition of tube formation by HUVEC in Matrigel ([3]; listed as PSA-ACT complexes): significantly reduced

SEPCALPERPS [Peptide #5]
reproducible anti-angiogenic activity [3]: did not demonstrate reproducible anti-angiogenic activity

T-PSA: PSA isolated from human prostate cancer tissue specimens
inhibitory activity on endothelial tube formation ([3]; equi-molar concentrations of f-PSA and T-PSA): equivalent inhibitory activity | enzymatic activity in the assay ([8]; fluorogenic substrate hydrolysis): demonstrated enzymatic activity | enzymatic activity relative to f-PSA from seminal plasma ([8]; per microgram of protein): roughly 50%
